Structures can show the parent of a compound that is named as a salt. Where two headings read alike, the source gives them in different places.
System: gastrointestinal motility
Experiment: Effects on gastrointestinal motility in conscious dog (force transducers implanted on stomach and colon, motor index)
Type: in vivo
Conditions: Canis lupus familiaris, iv, 20 min, about two hours after feeding, motor index for twenty minutes before and after administration; for change in vivo at 1 mg/kg: dose 1 mg/kg i.v.; for change in vivo at 0.1 mg/kg: dose 0.1 mg/kg i.v.
Experimental: Under systemical anesthesia, force transducers were chronically implanted to the stomach and the colon of the adult male or female dogs in a direction to measure circular muscle contraction according to the method of Ito et al. (Japanese Journal of Smooth Muscle Research, 13, 33, 1976). A silicone tube chronically attached into jugular vein for intravenous administration of test compounds. After the animal was recovered from the operation, test compounds were administered at about two hours after feeding while gastrointestinal motility was measured. The gastrointestinal motility was indicated as motor index, and the effects of test compounds were estimated by the change of motor index for twenty minutes before and after the administration. […]

[1] = colon, read-out: Change of Motor Index (%) Colon
[2] = stomach, read-out: Change of Motor Index (%) Stomach

Structure (SMILES)	change in vivo at 1 mg/kg [1]	change in vivo at 1 mg/kg [2]	change in vivo at 0.1 mg/kg [1]	change in vivo at 0.1 mg/kg [2]
CCOC(=O)CN1CCC(NC(=O)c2cc(Cl)c(N)cc2OC)CC1 [Example 46, Ethyl [4-(4-amino-5-chloro-2-methoxybenzamido)piperidino]acetate hydrochloride]	166%	182%		
CCOc1cc(N)c(Cl)cc1C(=O)NC1CC2CCCC(C1)N2CC(=O)O (stereo not drawn) [Example 41, endo-[3-(4-Amino-5-chloro-2-ethoxybenzamido)-9-azabicyclo[3.3.1]non-9-yl]acetic acid hydrochloride]	172%	118%		
CCOC(=O)CCN1[C@@H]2CCC[C@H]1C[C@@H](NC(=O)c1cc(Cl)c(N)cc1OC)C2 [Example 27, Ethyl endo-3-[3-(4-amino-5-chloro-2-methoxybenzamido)-9-azabicyclo[3.3.1]non-9-yl]propionate]			134%	113%
CCOC(=O)CN1[C@@H]2CCC[C@H]1C[C@@H](NC(=O)c1cc(Cl)c(N)cc1OC)C2 [Example 23, Ethyl endo-[3-(4-amino-5-chloro-2-methoxybenzamido)-9-azabicyclo[3.3.1]non-9-yl]acetate]	133%	134%		
COc1cc(N)c(Cl)cc1C(=O)N[C@H]1C[C@H]2CCC[C@@H](C1)N2CCCCCC(=O)O [Example 36, endo-6-[3-(4-Amino-5-chloro-2-methoxybenzamido)-9-azabicyclo[3.3.1]non-9-yl]hexanoic acid hydrochloride]	120%	196%		
COc1cc(N)c(Cl)cc1C(=O)N[C@H]1C[C@H]2CCC[C@@H](C1)N2CCCC(=O)O [Example 35, endo-4-[3-(4-Amino-5-chloro-2-methoxybenzamido)-9-azabicyclo[3.3.1]non-9-yl]butyric acid hydrochloride]	136%	187%		
COc1cc(N)c(Cl)cc1C(=O)NC1CC2CCC(C1)N2CC(=O)O (stereo not drawn) [Example 43, endo-[3-(4-Amino-5-chloro-2-methoxybenzamido)-8-azabicyclo[3.2.1]oct-8-yl]acetic acid hydrochloride]	505%	166%		
COc1cc(N)c(Cl)cc1C(=O)N[C@H]1C[C@H]2CCC[C@@H](C1)N2CCC(=O)O [Example 38, endo-3-[3-(4-Amino-5-chloro-2-methoxybenzamido)-9-azabicyclo[3.3.1]non-9-yl]propionic acid hydrochloride]	140%	146%		
CCOC(=O)CN1[C@@H]2CC[C@H]1C[C@H](NC(=O)c1cc(Cl)c(N)cc1OC)C2 [Example 33, Ethyl exo-[3-(4-amino-5-chloro-2-methoxybenzamido)-8-azabicyclo[3.2.1]oct-8-yl]acetate]	117%	147%		
CCOC(=O)CCCCCN1[C@@H]2CCC[C@H]1C[C@@H](NC(=O)c1cc(Cl)c(N)cc1OC)C2 [Example 25, Ethyl endo-6-[3-(4-amino-5-chloro-2-methoxybenzamido)-9-azabicyclo[3.3.1]non-9-yl]hexanoate]	133%	181%		
CCOC(=O)CCCN1[C@@H]2CCC[C@H]1C[C@@H](NC(=O)c1cc(Cl)c(N)cc1OC)C2 [Example 24, Ethyl endo-4-[3-(4-amino-5-chloro-2-methoxybenzamido)-9-azabicyclo[3.3.1]non-9-yl]butyrate]			135%	116%
COc1cc(N)c(Cl)cc1C(=O)NC1CCN(CC(=O)O)CC1 [Example 58, [4-[(4-Amino-5-chloro-2-methoxybenzamido)piperidino]acetic acid hydrochloride]			218%	181%
COc1cc(N)c(Cl)cc1C(=O)NC1CCN(C(C)C(=O)O)CC1 (stereo not drawn) [Example 63, 2-[4-(4-Amino-5-chloro-2-methoxybenzamido)piperidino]propionic acid]	157%	130%		
CCOC(=O)CCCCN1[C@@H]2CCC[C@H]1C[C@@H](NC(=O)c1cc(Cl)c(N)cc1OC)C2 [Example 28, Ethyl endo-5-[3-(4-amino-5-chloro-2-methoxybenzamido)-9-azabicyclo[3.3.1]non-9-yl]valerate]	164%	142%		
CCOC(=O)CN1[C@@H]2CC[C@H]1C[C@@H](NC(=O)c1cc(Cl)c(N)cc1OC)C2 [Example 32, Ethyl endo-[3-(4-amino-5-chloro-2-methoxybenzamido)-8-azabicyclo[3.2.1]oct-8-yl]acetate]	158%	177%		
COc1cc(N)c(Cl)cc1C(=O)N[C@H]1C[C@H]2CCC[C@@H](C1)N2CC(=O)O [Example 34, endo-[3-(4-Amino-5-chloro-2-methoxybenzamido)-9-azabicyclo[3.3.1]non-9-yl]acetic acid hydrochloride]	192%	187%		
COc1cc(N)c(Cl)cc1C(=O)N[C@H]1CCN(CC(=O)O)C[C@H]1OC (relative stereo) [Example 64, cis-[4-(4-Amino-5-chloro-2-methoxybenzamido)-3-methoxypiperidino]acetic acid]			234%	200%
COc1cc(N)c(Cl)cc1C(=O)N[C@H]1C[C@H]2CCC[C@@H](C1)N2CCCCC(=O)O [Example 39, endo-5-[3-(4-Amino-5-chloro-2-methoxybenzamido)-9-azabicyclo[3.3.1]non-9-yl]valeric acid hydrochloride]			159%	135%

Source: patent EP0640601B1, “BENZAMIDE DERIVATIVE” (HOKURIKU SEIYAKU CO., LTD., priority 1991, dated 1992)
